Test results from patent publication US11564990B2, “Multi-drug-loading-site, high drug-loading capacity ligand-drug conjugate” (JenKem Technology Co., Ltd. (Beijing), priority 2017, dated 2023).

Key:
[1] = Determination of drug antibody coupling ratio (DAR) by UV/Vis method; format: physicochemical; settings: two-step coupling products, UV-Vis; moles of drug divided by moles of antibody
Description: In formula (1), the sum of the absorbances of the drug and the antibody at 280 nm constitutes the total absorbance (A280): A280=(εdrug^280Cdrug+εmAb^280CmAb)l (1)
wherein εdrug^280 is the extinction coefficient of the drug at 280 nm; Cdrug is the drug concentration (mg/mL); […] the extinction coefficient of the antibody at 280 nm; CmAb is the concentration of the antibody.
Equation (2) is the parallel equation for the total absorbance of the drug at the maximum absorption λ(D): Aλ(D)=(εdrug^λ(D)Cdrug+εmAb^λ(D)CmAb)l (2)
wherein εdrug^λ(D) is the extinction coefficient of the drug at λ(D)nm; Cdrug is the drug concentration (mg/mL); εmAb^λ(D) is the extinction coefficient of the antibody at λ(D)nm; CmAb is the concentration of the antibody (mg/mL).
The concentration of antibody and drug can be calculated separately by two equations (1) and (2). CmAb=(A280εdrug^λ(D)−Aλ(D)εdrug^280)/[(εmAb^280εdrug^λ(D)−εmAb^λ(D)εdrug^280)l] (3) Cdrug=(A280εmAb^λ(D)−Aλ(D)εmAb^280)/[(εdrug^280εmAb^λ(D)−εdrug^λ(D)εmAb^280)l] (4)
The average drug antibody coupling ratio (DAR) calculated by dividing
[formula] is expressed as the number of moles of drug divided by the number of moles of antibody: […]

[2] = Antibody pharmacokinetic assay in rats (total antibody in plasma by HER2 ELISA); settings: SD rats, intravenous 30 mg/kg, compared with control Ab
[3] = system: colorectal cancer model (HCT-116); test: Efficacy test in colorectal cancer model in which HER2 was not expressed; format: in vivo, nude mice; settings: HCT-116 model
Procedure: Experimental method: Evaluation of the efficacy of the sample was performed using a colorectal cancer model in which HER2 was not expressed. The cell line at logarithmic growth phase was inoculated subcutaneously into the right side of the immunodeficient mice, and the cell inoculation amount was 5×10^6 cells/mouse. After the transplanted tumor was formed, allow it grow in the mice for 2 passage before use. The tumor tissue with strong growth period was cut into tumor pieces with a diameter of about 2 mm, and inoculated subcutaneously into the right torso of nude mice under sterile conditions. The formed tumor tissue is measured by a vernier caliper, and the long and short diameters are represented by a and b, respectively, and the tumor volume (TV) is calculated as: TV=½×a×b^2. Animals were randomized after tumor growth to 100-150 mm^3. Both models were divided into vehicle group, control group (recombinant anti-HER2 humanized monoclonal antibody Ab, 30 mg/kg) and test group I (administered with APEGA-8, 9, 10, respectively (prepared in Example 6-8), the dose was 30 mg/kg in terms of Ab, and the test group II (PEG-Irinotecan (prepared in Example 5), the dose was 30 mg/kg). Both the test article and the control drug were administered once a week vial the tail vein for a total of three administrations. The diameter of the transplanted tumor was measured twice a week during the entire experiment, and the body weight of the mice was weighed. After the end of the administration, continue to observe the animals for a week, and then they were sacrificed.

CCc1c2c(nc3ccc(OC(=O)N4CCC(N5CCCCC5)CC4)cc13)-c1cc3c(c(=O)n1C2)COC(=O)[C@]3(C)CC [APEGA-8]
DAR (average drug antibody coupling ratio) [1]: 22.2
elimination rate in rat plasma (total antibody) [2]: increased to a certain extent compared with the control Ab, but the decline trend was not significant
antitumor activities in relation to drug loading ([3]; 30 mg/kg in terms of Ab, QW×3): increased with the drug loading
efficacy compared with group II (PEG-Irinotecan 30 mg/kg) ([3]; irinotecan dose 2.6, 4.2, 11.2 mg/kg respectively): still better than group II
Tumor inhibition rate (%) ([3]; third week of administration, 30 mg/kg QW×3 via tail vein): 40.1%
